Data reported in paper PMC9436819 (JACC: Basic to Translational Science, 2022).
Entries after “also recorded” stand apart in the source; their conditions may differ.

Columns and labels:
Type in all cases: in vivo, human
healthy adults [1] = test: Treatment-emergent adverse events, multiple ascending dose (MAD) cohorts; conditions: n = 6
Method: The MAD cohorts also used a randomized, double-blind, placebo-controlled, sequential design. […] Safety was assessed by the incidence of adverse events (AEs) and by the incidence of reduced LVEF. Treatment-emergent AEs (TEAEs) were defined as AEs that began or increased after study drug administration. All AEs were coded using the Medical Dictionary for Regulatory Activities, version 21.1, and graded using the National Cancer Institute Common Terminology Criteria for AEs (version 4.03) 5-point severity scale.[18] Each AE was judged as either related or unrelated to the study drug by the treating investigator. Clinical laboratory tests were obtained at regular intervals in all cohorts.

[2] = Plasma pharmacokinetics after multiple oral doses (MAD cohorts); conditions: for AUC / Cmax / Tmax / half-life: human, plasma, oral; for AUC / Cmax: geometric mean (geometric CV%); for Tmax: median (range)
Text: The MAD cohorts also used a randomized, double-blind, placebo-controlled, sequential design. […] For all study groups, blood samples for PK assessment were obtained predose, up to 12 times daily on day 1, and then at regular intervals throughout the study (see Supplemental Appendix for details). Standard noncompartmental methods were used to calculate PK parameters using Phoenix WinNonlin, version 7.0; actual sample collection times were used. […] Steady-state analysis In the M AD cohort, a steady- state an alysis for […] erfo rmed o n the ln-transformed plasma trough concentrat ion (Ctrough) values using Helmert contrasts. An analysis of variance (ANOVA) model was co nducted separately fo r each dose level; day w as in cluded as the fix ed effect. Helmert contrasts were d eveloped su ch that each time- point was compared with the mean of the subsequent time-points. Steady state was established at the time-point where no statistical differen ce (alpha = 5%, 2 -sided) was obs […] the subsequent time-points. 5

[3] = Plasma pharmacokinetics in the CYP2D6 poor metabolizer cohort
Method: CYP2D6 genotypes were determined at screening for all study participants; those identified as CYP2D6-PMs were excluded from the SAD and MAD cohorts but were invited to participate in the CYP2D6-PM cohort. The first individual in the CYP2D6-PM cohort was dosed after the SAD 25-mg cohort (Figure 1). […] Nine participants were randomized (7:2), with a sentinel dosing group consisting of the first 2 participants treated. For all study groups, blood samples for PK assessment were obtained predose, up to 12 times daily on day 1, and then at regular intervals throughout the study (see Supplemental Appendix for details). Standard noncompartmental methods were used to calculate PK parameters using Phoenix WinNonlin, version 7.0; actual sample collection times were used.

healthy adults [4] = test: Safety echocardiograms assessed by study cardiologist (AEs of decreased LVEF); conditions: for LVEF deemed AE (decreased ejection fraction <45%): study cardiologist
Text: Recommendations regarding dose escalation in the SAD cohorts—and in the MAD cohorts described in the next section—were made by the treating investigator (who was blinded to treatment group) and endorsed or not by the Dose Level Review Committee (DLRC), the members of which were unblinded. […] Criteria for escalation included that no more than 2 participants in a dose group developed an LVEF of <50% and that no individual developed an LVEF of <45%; escalation criteria are given in full in the Supplemental Appendix. For safety monitoring, participants in all cohorts had periodic echocardiograms, which were assessed by a cardiologist. In the SAD and MAD cohorts, echocardiograms were also reviewed by an echocardiography core laboratory for PD assessments, as described in the section on echocardiographic methods. In addition, participants in all cohorts were monitored with continuous 12-lead ECG recording using Holter monitors. For safety monitoring, a single 12-lead ECG was extracted at screening, predose, and periodically throughout follow-up and interpreted by the investigator. In the SAD, MAD, and CYP2D6-PM cohorts, cardiodynamic ECGs (triplicate 10-second, 12-lead ECG recordings) were obtained before the corresponding PK blood sample (see the Supplemental Appendix for full details on blood sampling), and ECG intervals were quantitated by qualified readers.

[5] = CYP2D6 poor metabolizers, single 10 mg, arithmetic mean ± SD, n = 7
[6] = human, plasma, oral, CYP2D6 poor metabolizers, single 10 mg, geometric mean (geometric CV%), n = 7
[7] = SAD 40 mg, one participant, 6 h after drug dose
[8] = SAD 50 mg, one participant, 4 h after drug dose
[9] = SAD 75 mg, single participant, 4 h after drug dose

CCc1nc(-c2ccc3c(c2)CC[C@H]3NC(=O)c2cnn(C)c2)no1 [Aficamten]
Participants with any TEAE (healthy adults [1]; MAD 5 mg qd × 14 d): 1 (17) n (%) | TEAE: Chapped lips (healthy adults [1]; MAD 5 mg qd × 14 d): 1 (17) n (%) | TEAE: Cough (healthy adults [1]; MAD 5 mg qd × 14 d): 1 (17) n (%) | TEAE: Salivary hypersecretion (healthy adults [1]; MAD 5 mg qd × 14 d): 1 (17) n (%) | Participants with any TEAE (healthy adults [1]; MAD 10 mg qd × 14 d): 2 (33) n (%) | TEAE: Headache (healthy adults [1]; MAD 10 mg qd × 14 d): 1 (17) n (%) | TEAE: Upper respiratory tract infection (healthy adults [1]; MAD 10 mg qd × 14 d): 1 (17) n (%) | Day by the end of which steady state was achieved ([2]; 5-mg dose once daily): 12 days | Day by the end of which steady state was achieved ([2]; 7.5-mg dose once daily): 12 days | Day by the end of which steady state was achieved ([2]; 10-mg dose once daily): 10 days | AUC ([2]; 5 mg, Day 1, 5 mg qd × 14 d, n = 6, read-out: AUC24): 278 ng·h/mL | Cmax ([2]; 5 mg, Day 1, 5 mg qd × 14 d, n = 6, read-out: Cmax): 28 ng/mL | Tmax ([2]; 5 mg, Day 1, 5 mg qd × 14 d, n = 6, read-out: Tmax): 1.3 h | half-life ([2]; 5 mg, Day 14, 5 mg qd × 14 d, arithmetic mean ± SD, n = 6, read-out: t½ (converted)): 86.4 ± 11.9 h | AUC ([2]; 5 mg, Day 14, 5 mg qd × 14 d, n = 6, read-out: AUCtau): 1320 ng·h/mL | Cmax ([2]; 5 mg, Day 14, 5 mg qd × 14 d, n = 6, read-out: Cmax,ss): 69 ng/mL | Tmax ([2]; 5 mg, Day 14, 5 mg qd × 14 d, n = 6, read-out: Tmax,ss): 2.8 h | AUC ([2]; 7.5 mg, Day 1, 7.5 mg qd × 17 d, n = 6, read-out: AUC24): 551 ng·h/mL | Cmax ([2]; 7.5 mg, Day 1, 7.5 mg qd × 17 d, n = 6, read-out: Cmax): 69.3 ng/mL | Tmax ([2]; 7.5 mg, Day 1, 7.5 mg qd × 17 d, n = 6, read-out: Tmax): 0.8 h | half-life ([2]; 7.5 mg, Day 17, 7.5 mg qd × 17 d, arithmetic mean ± SD, n = 6, read-out: t½ (converted)): 76.9 ± 14.5 h | AUC ([2]; 7.5 mg, Day 17, 7.5 mg qd × 17 d, n = 6, read-out: AUCtau): 2520 ng·h/mL | Cmax ([2]; 7.5 mg, Day 17, 7.5 mg qd × 17 d, n = 6, read-out: Cmax,ss): 148 ng/mL | Tmax ([2]; 7.5 mg, Day 17, 7.5 mg qd × 17 d, n = 6, read-out: Tmax,ss): 1 h | half-life ([2]; 10 mg, 5, 7.5, 10 mg once daily, read-out: Terminal elimination half-life, range across multiple-dose cohorts): 77 to 86 h | AUC ([2]; 10 mg, Day 1, 10 mg qd × 14 d, n = 6, read-out: AUC24): 547 ng·h/mL | Cmax ([2]; 10 mg, Day 1, 10 mg qd × 14 d, n = 6, read-out: Cmax): 54.4 ng/mL | Tmax ([2]; 10 mg, Day 1, 10 mg qd × 14 d, n = 6, read-out: Tmax): 1 h | half-life ([2]; 10 mg, Day 14, 10 mg qd × 14 d, arithmetic mean ± SD, n = 6, read-out: t½ (converted)): 79.8 ± 14.1 h | AUC ([2]; 10 mg, Day 14, 10 mg qd × 14 d, n = 6, read-out: AUCtau): 2630 ng·h/mL | Cmax ([2]; 10 mg, Day 14, 10 mg qd × 14 d, n = 6, read-out: Cmax,ss): 141 ng/mL | Tmax ([2]; 10 mg, Day 14, 10 mg qd × 14 d, n = 6, read-out: Tmax,ss): 2.5 h | Attainment of steady state ([2]; once-daily dosing): ≤ 2 weeks | CL/F [3, 5]: 3.6 ± 1.4 L/h | t½ [3, 5]: 110 h | half-life ([3]; human, plasma, oral, 10 mg, CYP2D6 poor metabolizers, single 10 mg, arithmetic mean ± SD, n = 7, read-out: t½ (converted)): 110 ± 47.3 h | Vd/F ([3]; human, plasma, oral, CYP2D6 poor metabolizers, single 10 mg, arithmetic mean ± SD, n = 7, read-out: Vz/F): 506 ± 84.4 L | AUC(0-inf) [3, 6]: 2970 ng·h/mL | Cmax [3, 6]: 57.3 ng/mL | AUC ([3]; human, plasma, oral, CYP2D6 poor metabolizers, single 10 mg, geometric mean (geometric CV%), n = 7, read-out: AUC24): 495 ng·h/mL | Tmax ([3]; human, plasma, oral, CYP2D6 poor metabolizers, single 10 mg, median (range), n = 7): 1 h | Effect of CYP2D6 poor metabolizer phenotype on the PK ([3]; single 10 mg): not affected; also recorded: no effect | Plasma mean concentrations in CYP2D6 poor metabolizers versus extensive metabolizers ([3]; single 10-mg dose): Modestly lower | Participants with echocardiogram-related AEs of decreased LVEF of <45% (healthy adults [4]; 1 each in SAD 40-mg, 50-mg, and 75-mg cohorts): 3 participants | AEs of decreased ejection fraction of <45% (healthy adults [4]; MAD, CYP2D6-PM, and food-effect cohorts): no echocardiographic AEs | Grade of AE of decreased ejection fraction (healthy adults [4]; SAD 40 mg, one participant): 1 (mild) | Onset of AE of decreased ejection fraction (time after drug dose) (healthy adults [4]; SAD 40 mg, one participant): 1.4 h | LVEF recorded at resolution of AE (healthy adults [4]; [7]): 58.4% | Time from onset to resolution of AE of decreased ejection fraction (healthy adults [4]; [7]): 4.6 h | LVEF deemed AE (decreased ejection fraction <45%) (healthy adults [4]; SAD 40 mg, one participant): 42.2% | Decrease in LVEF of 1 participant after cohort expansion (healthy adults [4]; SAD 50 mg): > 15% | LVEF of 1 participant after cohort expansion (healthy adults [4]; SAD 50 mg): < 45% | Postdose LVEF of 1 participant (<50%) (healthy adults [4]; SAD 50 mg, initial cohort): 46.2% | Grade of AE of decreased ejection fraction (healthy adults [4]; SAD 50 mg, one participant): 1 (mild) | Onset of AE of decreased ejection fraction (time after drug dose) (healthy adults [4]; SAD 50 mg, one participant): 1.5 h | LVEF recorded at resolution of AE (healthy adults [4]; [8]): 50.2% | Time from onset to resolution of AE of decreased ejection fraction (healthy adults [4]; [8]): 2.5 h | LVEF deemed AE (decreased ejection fraction <45%) (healthy adults [4]; SAD 50 mg, one participant): 42.1% | Postdose LVEF of the sentinel participant (healthy adults [4]; SAD 75 mg): < 45% | Reduction in LVEF of the single participant (healthy adults [4]; SAD 75 mg, […] postdose): 31.5% | Grade of AE of decreased ejection fraction (healthy adults [4]; SAD 75 mg, single participant): 1 (mild) | Onset of AE of decreased ejection fraction (time after drug dose) (healthy adults [4]; SAD 75 mg, single participant): 1.5 h | LVEF recorded at resolution of AE (healthy adults [4]; [9]): 51.9% | Time from onset to resolution of AE of decreased ejection fraction (healthy adults [4]; [9]): 2.5 h | LVEF deemed AE (decreased ejection fraction <45%) (healthy adults [4]; SAD 75 mg, single participant, […] postdose): 34.6% | Time to resolution of AEs of decreased LVEF (next echocardiogram assessment) (healthy adults [4]; SAD 40, 50, 75 mg): 2.5 to 4.6 h
